Data as given in patent publication US7566718B2, “Amine-linked pyridyl and phenyl substituted piperazine-piperidines with CXCR3 antagonist activity” (Schering Corporation, priority 2005, dated 2009).

Molecular target: T1, human CXCR3 (N-delta 4) (Homo sapiens, UniProt P49682)
T1 construct: CD8 leader (N); Flag tag; expressed in transfected cells; membrane preparation
T1 sequence (P49682 5-368 limits assumed): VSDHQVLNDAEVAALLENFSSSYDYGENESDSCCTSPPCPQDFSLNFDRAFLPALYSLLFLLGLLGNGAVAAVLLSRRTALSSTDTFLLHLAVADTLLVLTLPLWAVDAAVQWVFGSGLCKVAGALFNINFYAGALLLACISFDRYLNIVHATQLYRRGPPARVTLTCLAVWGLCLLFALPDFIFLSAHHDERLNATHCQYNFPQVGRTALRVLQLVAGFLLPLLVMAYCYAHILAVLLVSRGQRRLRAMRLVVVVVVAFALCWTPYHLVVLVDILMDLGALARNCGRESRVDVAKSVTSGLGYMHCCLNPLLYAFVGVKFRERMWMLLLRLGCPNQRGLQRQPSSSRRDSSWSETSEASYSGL
Assay: Human CXCR3 (N-delta 4) scintillation proximity assay (SPA), [125I] IP-10 binding to Ba/F3-hCXCR3 membranes
Conditions: IC50 rating; [125I] IP-10 displacement, human CXCR3; read-out: IC50
Description: The inventive compounds can readily be evaluated to determine activity at the CXCR3 receptors by known methods, such as, for example, development of a human CXCR3 (N-delta 4) Binding Assay.
The DNA encoding human CXCR3 was cloned by PCR using human genomic DNA (Promega, Madison, Wis.) as a template. The PCR primers were designed based on the published sequence of human orphan receptor GPR9 (1) with incorporated restriction sites, a Kozak consensus sequence, CD8 leader and Flag tag. The PCR product was subcloned into the mammalian expression vector pME18Sneo, a derivative of the SR-alpha expression vector (designated as pME18Sneo-hCXCR3 (N-delta 4).
IL-3-dependent mouse pro-B cells Ba/F3 were transfected by electroporation in 0.4 ml Dulbecco's PBS containing 4×10^6 cells with 20 μg of pME18Sneo-hCXCR3 (N-delta 4) plasmid DNA. Cells were pulsed at 400 Volts, 100 OHMs, 960 μFd. The transfected cells were under selection with 1 mg/ml G418 (Life Technologies, Gaithersburg, Md.). G418-resistant Ba/F3 clones were screened for CXCR3 expression by specific binding of [^125I] IP-10 (NEN Life Science Products, Boston, Mass.).
Ba/F3 cells expressing human CXCR3 (N-delta 4) were pelleted and resuspended in the lysis buffer containing 10 mM HEPES, pH 7.5 and Complete® protease inhibitors (1 tablet per 100 ml) (Boehringer Mannheim, Indianapolis, Ind.) at a cell density of 20×10^6 cells per ml. After 5 minute incubation on ice, cells were transferred to 4639 cell disruption bomb (Parr Instrument, Moline, Ill.) and applied with 1,500 psi of nitrogen for 30 minutes on ice. Large cellular debris was removed by centrifugation at 1,000×g. Cell membrane in the supernatant was sedimented at 100,000×g. The membrane was resuspended in the lysis buffer supplemented with 10% sucrose and stored at −80° C. Total protein concentration of the membrane was determined by BCA method from Pierce (Rockford, Ill.).
Human CXCR3 (N-Delta 4) Scintillation Proximity Assay (SPA):
For each assay point, 2 μg of membrane was preincubated for 1 hr with 300 μg wheat germ agglutinin (WGA) coated SPA beads (Amersham, Arlington Heights, Ill.) in the binding buffer (50 mM HEPES, 1 mM CaCl2, 5 mM MgCl2, 125 mM NaCl, 0.002% NaN3, 1.0% BSA) at room temperature. The beads were spun down, washed once, resuspended in the binding buffer and transferred to a 96-well Isoplate (Wallac, Gaithersburg, Md.). 25 pM of [^125I] IP-10 with tested compounds in a series of titration were added to start the reaction. After 3 hr reaction at room temperature, the amount of [^125I] IP-10 bound to the SPA beads was determined with a Wallac 1450 Microbeta counter.

Structure (SMILES) | IC50 [nM]
C[C@@H]1CN(c2ncc(Nc3c(NCC(F)(F)F)c(=O)c3=O)cc2Cl)[C@@H](C)CN1C1CCN(Cc2ccc(Cl)c(Cl)c2)CC1 [Compound 124] | > 100
CC[C@H]1CN(c2ncc(Nc3c(N)c(=O)c3=O)cc2Cl)CCN1C1CCN(Cc2ccc(Cl)cc2F)CC1 [Compound 76] | < 25
CC[C@H]1CN(c2ncc(NS(C)(=O)=O)cc2Cl)CCN1C1CCN(Cc2ccc(Cl)cc2O)CC1 [Compound 34] | 25 to 100
CC[C@H]1CN(c2ncc(N)cc2Cl)CCN1C1CCN(Cc2ccc(Cl)cc2)CC1 [Compound 202] | < 25
C[C@@H]1CN(c2ncc(Nc3c(NCC(F)(F)F)c(=O)c3=O)cc2Cl)[C@@H](C)CN1C1CCN(Cc2ccc(Br)cc2)CC1 [Compound 125] | > 100
CC[C@H]1CN(c2ccc([N+](=O)[O-])cc2Cl)CCN1C1CCN(Cc2ccc(Cl)cc2)CC1 [Compound 216] | > 100
CC[C@H]1CN(c2ncc(NC3=NS(=O)(=O)N=C3NC3CC3)cc2Cl)CCN1C1CCN(Cc2ccc(Cl)cc2-c2nnc[nH]2)CC1 [Compound 250] | < 25
CC[C@H]1CN(c2ncc(-n3cn[nH]c3=O)cc2Cl)CCN1C1CCN(Cc2ccc(Cl)cc2F)CC1 [Compound 179] | < 25
CC1CCCC(N2CCC(N3C[C@H](C)N(c4ncc(Nc5c(NCC(F)(F)F)c(=O)c5=O)cc4Cl)C[C@H]3C)CC2)C1 (stereo partly shown) [Compound 176] | > 100
C[C@@H]1CN(c2ncc(Nc3c(NCC(F)(F)F)c(=O)c3=O)cc2Cl)[C@@H](C)CN1C1CCN(C2CCCC2)CC1 [Compound 162] | > 100
CC[C@H]1CN(c2ncc(NS(=O)(=O)N(C)C)cc2Cl)CCN1C1CCN(Cc2ccc(Cl)cc2F)CC1 [Compound 17] | < 25
C[C@H]1CN(c2ncc([N+](=O)[O-])cc2Cl)CCN1C1CCN(Cc2ccc(Cl)cc2F)CC1 [Compound 227] | > 100
CC[C@H]1CN(c2ncc(NS(C)(=O)=O)cc2Cl)CCN1C1CCN(Cc2ccc(OC)cc2OC)CC1 [Compound 18] | < 25
C[C@@H]1CN(c2ncc(Nc3c(NCC(F)(F)F)c(=O)c3=O)cc2Cl)[C@@H](C)CN1C1CCN(CCCC2CCCCC2)CC1 [Compound 118] | > 100
CC[C@H]1CN(c2ncc(Nc3c(NC4CC4)c(=O)c3=O)cc2Cl)CCN1C1CCN(Cc2ccc(C#N)cc2)CC1 [Compound 80] | < 25
CC[C@H]1CN(c2ncc(Nc3c(NC4CCC4)c(=O)c3=O)cc2Cl)CCN1C1CCN(Cc2ccc(Cl)cc2)CC1 [Compound 78] | < 25
CC[C@H]1CN(c2ncc(Nc3c(NC4CC4)c(=O)c3=O)cc2Cl)CCN1C1CCN(Cc2ccc(Cl)cc2[N+](=O)[O-])CC1 [Compound 99] | < 25

Structure (SMILES) | IC50 [nM]
CC[C@H]1CN(c2ncc(N/C(=N/C#N)NC)cc2Cl)CCN1C1CCN(Cc2ccc(Cl)cc2F)CC1 [Compound 205] | 25 to 100
CC[C@H]1CN(c2ncc(Nc3c(N4CCOCC4)c(=O)c3=O)cc2Cl)CCN1C1CCN(Cc2ccc(Cl)cc2F)CC1 [Compound 96] | < 25
CC[C@H]1CN(c2ncc(NS(N)(=O)=O)cc2Cl)CCN1C1CCN([C@H](C(N)=O)c2ccc(Cl)cc2)CC1 [Compound 35] | 25 to 100
CC[C@H]1CN(c2ncc(Nc3c(N4CCC4)c(=O)c3=O)cc2Cl)CCN1C1CCN(Cc2ccc(Cl)cc2F)CC1 [Compound 93] | < 25
CC[C@H]1CN(c2ncc(NC3=NS(=O)(=O)N=C3NC3CC3)cc2Cl)CCN1C1CCN(Cc2ccc(C(F)(F)F)cc2)CC1 [Compound 245] | < 25
C[C@@H]1CN(c2ncc(Nc3c(NCC(F)(F)F)c(=O)c3=O)cc2Cl)[C@@H](C)CN1C1CCN(C2CCC(c3ccccc3)CC2)CC1 (stereo partly shown) [Compound 146] | > 100
C[C@@H]1CN(c2ncc(Nc3c(NCC(F)(F)F)c(=O)c3=O)cc2Cl)[C@@H](C)CN1C1CCN(C2CCCC(C(F)(F)F)C2)CC1 (stereo partly shown) [Compound 145] | > 100
Cc1cc(Nc2c(NCC(F)(F)F)c(=O)c2=O)cnc1N1C[C@@H](C)N(C2CCN(C(=O)C3CCc4ccccc4C3)CC2)C[C@@H]1C (stereo partly shown) [Compound 130] | > 100
CC[C@H]1CN(c2ncc(N)cc2Cl)CCN1C1CCN(Cc2ccc(Cl)cc2F)CC1 [Compound 206] | 25 to 100
CC[C@H]1CN(c2ncc(-n3ccnc3)cc2Cl)CCN1C1CCN([C@H](C(=O)OC)c2ccc(Cl)cc2)CC1 [Compound 229] | > 100
CC[C@H]1CN(c2ncc(NC(=N)N)cc2Cl)CCN1C1CCN(Cc2ccc(Cl)cc2F)CC1 [Compound 221] | > 100
CC[C@H]1CN(c2ncc(NS(C)(=O)=O)cc2Cl)CCN1C1CCN(Cc2ccc(F)cc2)CC1 [Compound 25] | 25 to 100
CC[C@H]1CN(c2ncc(NC3=NS(=O)(=O)N=C3NC)cc2Cl)CCN1C1CCN(Cc2ccc(Cl)cc2C#N)CC1 [Compound 263] | 25 to 100
Cc1cc(Nc2c(NCC(F)(F)F)c(=O)c2=O)cnc1N1C[C@@H](C)N(C2CCN(C(=O)c3ccc(Cl)cc3)CC2)C[C@@H]1C [Compound 141] | > 100
CCC(C)CN1CCC(N2C[C@H](C)N(c3ncc(Nc4c(NCC(F)(F)F)c(=O)c4=O)cc3Cl)C[C@H]2C)CC1 (stereo partly shown) [Compound 132] | > 100
C[C@@H]1CN(C2CCN(Cc3ccc(Cl)cc3F)CC2)[C@@H](C)CN1c1ncc(Nc2c(NCC(F)(F)F)c(=O)c2=O)cc1Cl [Compound 92] | < 25
C[C@H]1CN(c2ncc(NC(=O)C3CC3)cc2Cl)CCN1C1CCN(Cc2ccc(Cl)cc2)CC1 [Compound 184] | < 25

Second part, the compound after the results:

IC50 [nM] | Structure (SMILES)
> 100 | C[C@@H]1CN(c2ncc(Nc3c(NCC(F)(F)F)c(=O)c3=O)cc2Cl)[C@@H](C)CN1C1CCN(CCCc2ccccc2)CC1 [Compound 116]
> 100 | CC[C@H]1CN(c2ncc(NS(=O)(=O)NC(=O)OC(C)(C)C)cc2Cl)CCN1C1CCN(Cc2ccc(Cl)cc2F)CC1 [Compound 55]
> 100 | C[C@H]1CN(c2ncc(Nc3ncccn3)cc2Cl)CCN1C1CCN(Cc2ccc(Cl)cc2F)CC1 [Compound 223]
< 25 | CC[C@H]1CN(c2ncc(NC3=NS(=O)(=O)N=C3NC3CCC3)cc2Cl)CCN1C1CCN(Cc2ccc(Cl)cc2F)CC1 [Compound 247]
< 25 | CC[C@H]1CN(c2ncc(NC3=NS(=O)(=O)N=C3N3CCC3)cc2Cl)CCN1C1CCN(Cc2ccc(Cl)cc2F)CC1 [Compound 254]
25 to 100 | CC[C@H]1CN(c2ncc(NC3=NS(=O)(=O)N=C3NC[C@@H](C)O)cc2Cl)CCN1C1CCN(Cc2ccc(Cl)cc2F)CC1 [Compound 258]
< 25 | CC[C@H]1CN(c2ncc(NS(C)(=O)=O)cc2Cl)CCN1C1CCN(Cc2ccc(C)cc2)CC1 [Compound 19]
> 100 | C[C@H]1CN(c2ncc(NS(C)(=O)=O)cc2Cl)CCN1C1CCN(Cc2ccc(C#N)cc2)CC1 [Compound 53]
> 100 | CC[C@H]1CN(c2cc(N)c([N+](=O)[O-])cc2Cl)CCN1C1CCN(Cc2ccc(Cl)cc2F)CC1 [Compound 220]
> 100 | CC[C@H]1CN(c2ncc(N(S(C)(=O)=O)S(C)(=O)=O)cc2Cl)CCN1C1CCN(Cc2ccc(Cl)cc2F)CC1 [Compound 61]
< 25 | CC[C@H]1CN(c2ncc(NC3=NS(=O)(=O)N=C3N(C)C)cc2Cl)CCN1C1CCN(Cc2ccc(Cl)cc2F)CC1 [Compound 237]
> 100 | C[C@H]1CN(c2ncc(NN)cc2Cl)CCN1C1CCN(Cc2ccc(Cl)cc2F)CC1 [Compound 231]
25 to 100 | CC[C@H]1CN(c2ncc(Nc3ncccn3)cc2Cl)CCN1C1CCN(Cc2ccc(Cl)cc2F)CC1 [Compound 211]
> 100 | C[C@H]1CN(c2ncc(NC(=O)C3CCCCC3)cc2Cl)CCN1C1CCN(Cc2ccc(Cl)cc2)CC1 [Compound 194]
25 to 100 | CCC(=O)Nc1cnc(N2CCN(C3CCN(Cc4ccc(Cl)cc4)CC3)[C@@H](C)C2)c(Cl)c1 [Compound 187]
